Numbers after ± are expanded uncertainties.
Tests used:
[1] = 92.3 kPa, Liquid; for viscosity: Concentric cylinders viscometry; for speed of sound: Frequency=3 MHz, Single path-length method; for mass density: Vibrating tube method
[2] = xn = mol fraction of the nth substance listed; conditions: 92.3 kPa, Liquid, x2 = 0; for viscosity: Concentric cylinders viscometry; for mass density: Vibrating tube method

viscosity ([1]; 293.15 K) | speed of sound ([1]; 293.15 K) | mass density ([1]; 293.15 K) | viscosity ([1]; 298.15 K) | speed of sound ([1]; 298.15 K) | mass density ([1]; 298.15 K) | viscosity ([1]; 303.15 K) | speed of sound ([1]; 303.15 K) | mass density ([1]; 303.15 K) | viscosity ([1]; 308.15 K) | speed of sound ([1]; 308.15 K) | mass density ([1]; 308.15 K) | SMILES | viscosity ([2]; 293.15 K) | mass density ([2]; 293.15 K) | viscosity ([2]; 298.15 K) | mass density ([2]; 298.15 K) | viscosity ([2]; 303.15 K) | mass density ([2]; 303.15 K) | viscosity ([2]; 308.15 K) | mass density ([2]; 308.15 K)
1408.4 ± 210 mPa·s | 1925.5 ± 1.8 m/s | 1260.73 ± 3 kg/m3 | 900.44 ± 130 mPa·s | 1911.9 ± 1.8 m/s | 1257.65 ± 3 kg/m3 | 593.09 ± 85 mPa·s | 1899.6 ± 1.8 m/s | 1254.48 ± 3 kg/m3 | 401.76 ± 57 mPa·s | 1888.1 ± 1.8 m/s | 1251.38 ± 3 kg/m3 | OCC(O)CO [glycerol] | – | – | – | – | – | – | – | –
1.202 ± 0.17 mPa·s | 1160.7 ± 1.8 m/s | 789.547 ± 3 kg/m3 | 1.091 ± 0.15 mPa·s | 1143.5 ± 1.8 m/s | 785.26 ± 3 kg/m3 | 0.992 ± 0.14 mPa·s | 1126.4 ± 1.8 m/s | 780.941 ± 3 kg/m3 | 0.9039 ± 0.13 mPa·s | 1109.6 ± 1.8 m/s | 776.592 ± 3 kg/m3 | CCO [ethanol] | – | – | – | – | – | – | – | –
20.61 ± 2.9 mPa·s | 1666.5 ± 1.8 m/s | 1113.72 ± 3 kg/m3 | 16.22 ± 2.3 mPa·s | 1654.7 ± 1.8 m/s | – | 13.87 ± 1.9 mPa·s | 1642.9 ± 1.8 m/s | 1106.71 ± 3 kg/m3 | 11.48 ± 1.6 mPa·s | 1631.2 ± 1.8 m/s | – | OCCO [1,2-ethanediol] | – | – | – | – | – | – | – | –
– | – | – | – | – | – | – | – | – | – | – | – | O [water] + OCCOCCO | 1.067 ± 0.15 mPa·s | 998.429 ± 3 kg/m3 | 0.8969 ± 0.13 mPa·s | 997.267 ± 3 kg/m3 | 0.8385 ± 0.12 mPa·s | 995.867 ± 3 kg/m3 | 0.7589 ± 0.11 mPa·s | 994.252 ± 3 kg/m3
– | – | – | – | – | – | – | – | – | – | – | – | O [water] + OCCO | 1.067 ± 0.15 mPa·s | 998.429 ± 3 kg/m3 | 0.8969 ± 0.13 mPa·s | 997.267 ± 3 kg/m3 | 0.8385 ± 0.12 mPa·s | 995.867 ± 3 kg/m3 | 0.7589 ± 0.11 mPa·s | 994.252 ± 3 kg/m3
– | – | – | – | – | – | – | – | – | – | – | – | O [water] + OCC(O)CO | 1.067 ± 0.15 mPa·s | 998.429 ± 3 kg/m3 | 0.8969 ± 0.13 mPa·s | 997.267 ± 3 kg/m3 | 0.8385 ± 0.12 mPa·s | 995.867 ± 3 kg/m3 | 0.7589 ± 0.11 mPa·s | 994.252 ± 3 kg/m3
– | – | – | – | – | – | – | – | – | – | – | – | O [water] + OCCOCCOCCO | 1.067 ± 0.15 mPa·s | 998.429 ± 3 kg/m3 | 0.8969 ± 0.13 mPa·s | 997.267 ± 3 kg/m3 | 0.8385 ± 0.12 mPa·s | 995.867 ± 3 kg/m3 | 0.7589 ± 0.11 mPa·s | 994.252 ± 3 kg/m3
48.06 ± 6.7 mPa·s | 1626.8 ± 2 m/s | 1123.48 ± 3 kg/m3 | 36.88 ± 5.2 mPa·s | 1611.6 ± 2 m/s | 1119.59 ± 3 kg/m3 | 29.59 ± 4.1 mPa·s | 1596.6 ± 2 m/s | 1115.7 ± 3 kg/m3 | 23.72 ± 3.3 mPa·s | 1581.7 ± 2 m/s | 1111.81 ± 3 kg/m3 | OCCOCCOCCO [triethylene glycol] | – | – | – | – | – | – | – | –
– | – | – | – | – | – | – | – | – | – | – | – | O [water] + CCO | 1.067 ± 0.15 mPa·s | 998.429 ± 3 kg/m3 | 0.8969 ± 0.13 mPa·s | 997.267 ± 3 kg/m3 | 0.8385 ± 0.12 mPa·s | 995.867 ± 3 kg/m3 | 0.7589 ± 0.11 mPa·s | 994.252 ± 3 kg/m3

SMILES | viscosity ([1]; 293.15 K) | speed of sound ([1]; 293.15 K) | mass density ([1]; 293.15 K) | viscosity ([1]; 298.15 K) | speed of sound ([1]; 298.15 K) | mass density ([1]; 298.15 K) | viscosity ([1]; 303.15 K) | speed of sound ([1]; 303.15 K) | mass density ([1]; 303.15 K) | viscosity ([1]; 308.15 K) | speed of sound ([1]; 308.15 K) | mass density ([1]; 308.15 K) | viscosity ([2]; 293.15 K) | mass density ([2]; 293.15 K) | viscosity ([2]; 298.15 K) | mass density ([2]; 298.15 K) | viscosity ([2]; 303.15 K) | mass density ([2]; 303.15 K) | viscosity ([2]; 308.15 K) | mass density ([2]; 308.15 K)
OCCOCCO [diethylene glycol] | 35.89 ± 5 mPa·s | 1591 ± 2 m/s | 1116.73 ± 3 kg/m3 | 27.67 ± 3.9 mPa·s | 1579.1 ± 2 m/s | 1113.17 ± 3 kg/m3 | 22.48 ± 3.1 mPa·s | 1567.2 ± 2 m/s | 1109.6 ± 3 kg/m3 | 18.27 ± 2.6 mPa·s | 1555.3 ± 2 m/s | 1106.01 ± 3 kg/m3 | – | – | – | – | – | – | – | –
O [water] | 1.067 ± 0.15 mPa·s | – | 998.429 ± 3 kg/m3 | 0.8969 ± 0.13 mPa·s | – | 997.267 ± 3 kg/m3 | 0.8385 ± 0.12 mPa·s | – | 995.867 ± 3 kg/m3 | 0.7589 ± 0.11 mPa·s | – | 994.252 ± 3 kg/m3 | – | – | – | – | – | – | – | –

From the NIST ThermoML archive (doi:10.1016/j.jct.2018.02.022)
